Test results from PubChem BioAssay AID248 (DTP/NCI, 2004).
Values joined by “and” are separate entries in the source; they are usually repeats but may differ in a detail not shown here. Identical values can stand only once. Toxic doses and inconclusive results are not listed. Cut-off read from the data, not from the text of the source: active = T/C of 150% or more; inactive = T/C below 125%.

Tested on: L1210 leukemia ip in BDF1 mice, survival T/C
Experiment: NCI In Vivo Anticancer Drug Screen. Data for tumor model L1210 Leukemia (intraperitoneal) in B6D2F1 (BDF1) mice
Details: endpoint: mean survival time, higher = longer survival
Outline: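 Ratio derived from survival: compound-dosed mice over vehicle-dosed mice, all bearing a transplantable tumor.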

[1] = dose: 100.0 mg/kg/injection, schedule: Q04DX003 (ip), vehicle: saline
[2] = dose: 200.0 mg/kg/injection, schedule: Q04DX003 (ip), vehicle: saline
[3] = dose: 400.0 mg/kg/injection, schedule: Q04DX003 (ip), vehicle: saline
[4] = dose: 50.0 mg/kg/injection, schedule: Q01DX009 (ip), vehicle: saline with Tween-80
[5] = dose: 100.0 mg/kg/injection, schedule: Q01DX009 (ip), vehicle: saline with Tween-80
[6] = dose: 100.0 mg/kg/injection, schedule: Q04DX003 (ip), vehicle: saline with Tween-80
[7] = dose: 200.0 mg/kg/injection, schedule: Q01DX009 (ip), vehicle: saline with Tween-80
[8] = dose: 200.0 mg/kg/injection, schedule: Q04DX003 (ip), vehicle: saline with Tween-80
[9] = dose: 400.0 mg/kg/injection, schedule: Q01DX009 (ip), vehicle: saline with Tween-80
[10] = dose: 50.0 mg/kg/injection, schedule: Q01DX001 (ip), vehicle: saline
[11] = dose: 100.0 mg/kg/injection, schedule: Q01DX001 (ip), vehicle: saline
[12] = dose: 200.0 mg/kg/injection, schedule: Q01DX001 (ip), vehicle: saline
[13] = dose: 400.0 mg/kg/injection, schedule: Q01DX001 (ip), vehicle: saline
[14] = dose: 100.0 mg/kg/injection, schedule: Q01DX009 (ip), vehicle: Klucel (hydroxypropylcellulose) (HPC)
[15] = dose: 200.0 mg/kg/injection, schedule: Q01DX009 (ip), vehicle: Klucel (hydroxypropylcellulose) (HPC)
[16] = dose: 100.0 mg/kg/injection, schedule: Q01DX009 (ip), vehicle: saline
[17] = dose: 200.0 mg/kg/injection, schedule: Q01DX009 (ip), vehicle: saline
[18] = dose: 400.0 mg/kg/injection, schedule: Q01DX009 (ip), vehicle: saline
[19] = dose: 100.0 mg/kg/injection, schedule: Q01DX001 (ip), vehicle: carboxymethylcellulose (CMC)
[20] = dose: 200.0 mg/kg/injection, schedule: Q01DX001 (ip), vehicle: carboxymethylcellulose (CMC)
[21] = dose: 400.0 mg/kg/injection, schedule: Q01DX001 (ip), vehicle: carboxymethylcellulose (CMC)

Measured: T/C

COC(=O)c1cc(=O)c2c(Cl)cccc2[nH]1
inactive: [1] 96 % of control | [2] 110 % of control | [3] 95 % of control

NC(c1ccccc1)C(N)c1ccccc1 (stereo not drawn)
inactive: [4] 104 % of control | [5] 102 % of control and 92 % of control | dose: 100.0 mg/kg/injection, schedule: Q04DX003 (ip), vehicle: other 91 % of control | [6] 98 % of control | [7] 95 % of control and 110 % of control | [8] 96 % of control | [9] 98 % of control

Brc1ccc2c(c1)-c1ccccc1C1=NCCN12
inactive: dose: 5.0 mg/kg/injection, schedule: Q01DX009 (ip), vehicle: Klucel (hydroxypropylcellulose) (HPC) 100 % of control | dose: 10.0 mg/kg/injection, schedule: Q01DX009 (ip), vehicle: Klucel (hydroxypropylcellulose) (HPC) 101 % of control | dose: 20.0 mg/kg/injection, schedule: Q04DX003 (ip), vehicle: Klucel (hydroxypropylcellulose) (HPC) 86 % of control

[CH3][Sb]1([Cl])[CH2]CC[CH2]1
inactive: [6] 103 % of control | [1] 101 % of control | [8] 107 % of control | [2] 108 % of control

Oc1ccc2c(c1)Cc1c-2nc2ccccc2c1Cl
inactive: [10] 97 % of control | [11] 98 % of control | [12] 97 % of control | [13] 93 % of control

CC1([N+](=O)[O-])COP(=O)(NC2CCCC2)OC1 (stereo not drawn)
inactive: [10] 106 % of control | [11] 108 % of control | [12] 102 % of control

O=C1c2ccccc2C(=O)c2c(Nc3cccc(S(=O)(=O)N(CCO)CCO)c3)ccc(O)c21
inactive: [4] 97 % of control | [5] 97 % of control | [7] 97 % of control

CC(O)(c1ccc(Cl)cc1)C(c1ccccc1)c1ccccn1 (stereo not drawn)
inactive: dose: 50.0 mg/kg/injection, schedule: Q01DX009 (ip), vehicle: water 103 % of control | dose: 100.0 mg/kg/injection, schedule: Q01DX009 (ip), vehicle: water 95 % of control | dose: 100.0 mg/kg/injection, schedule: Q04DX003 (ip), vehicle: water 116 % of control | dose: 200.0 mg/kg/injection, schedule: Q01DX009 (ip), vehicle: water 96 % of control | dose: 200.0 mg/kg/injection, schedule: Q04DX003 (ip), vehicle: water 119 % of control | dose: 400.0 mg/kg/injection, schedule: Q01DX009 (ip), vehicle: water 97 % of control | dose: 400.0 mg/kg/injection, schedule: Q04DX003 (ip), vehicle: water 104 % of control

CONS(=O)c1ccc([N+](=O)[O-])cc1 (stereo not drawn)
inactive: [14] 98 % of control | [15] 96 % of control | dose: 400.0 mg/kg/injection, schedule: Q01DX009 (ip), vehicle: Klucel (hydroxypropylcellulose) (HPC) 100 % of control

C[N+]12CN3CN(C1)S(=O)(=O)N(C3)C2
inactive: [16] 107 % of control | [1] 95 % of control | [17] 108 % of control | [2] 97 % of control | [18] 110 % of control | [3] 103 % of control

O=C(Nc1ccc(Cl)cc1C(=O)c1ccccc1)c1ccc(Cl)cc1
inactive: dose: 100.0 mg/kg/injection, schedule: Q04DX002 (ip), vehicle: Klucel (hydroxypropylcellulose) (HPC) 92 % of control | dose: 200.0 mg/kg/injection, schedule: Q04DX002 (ip), vehicle: Klucel (hydroxypropylcellulose) (HPC) 89 % of control | dose: 400.0 mg/kg/injection, schedule: Q04DX002 (ip), vehicle: Klucel (hydroxypropylcellulose) (HPC) 95 % of control

CCOC(=O)c1c[nH]c2c(OC)cccc2c1=O
inactive: [5] 102 % of control | [6] 98 % of control | [7] 88 % of control | [8] 98 % of control | [9] 97 % of control | dose: 400.0 mg/kg/injection, schedule: Q04DX003 (ip), vehicle: saline with Tween-80 109 % of control

Nc1c(N=Nc2cccc([N+](=O)[O-])c2)c(S(=O)(=O)O)cc2cc(S(=O)(=O)O)c(N=Nc3ccc(-c4ccc(N=Nc5cc(S(=O)(=O)O)c6ccccc6c5O)cc4)cc3)c(O)c12
inactive: dose: 50.0 mg/kg/injection, schedule: Q01DX010 (ip), vehicle: saline 94 % of control | dose: 100.0 mg/kg/injection, schedule: Q01DX010 (ip), vehicle: saline 100 % of control | dose: 200.0 mg/kg/injection, schedule: Q01DX010 (ip), vehicle: saline 92 % of control

Cc1cc(C(C)(C)C)c(Oc2ccc([N+](=O)[O-])cc2S(=O)(=O)O)c(C(C)(C)C)c1
inactive: [5] 86 % of control | [9] 88 % of control

CCCCC(=O)N/N=C\c1cccc2ccccc12
inactive: [19] 86 % of control | [20] 88 % of control | [21] 96 % of control

O=C1OCC/C1=C/CCCC/C=C1\CCOC1=O
inactive: [14] 93 % of control | dose: 100.0 mg/kg/injection, schedule: Q04DX003 (ip), vehicle: Klucel (hydroxypropylcellulose) (HPC) 94 % of control | [15] 98 % of control | dose: 266.0 mg/kg/injection, schedule: Q04DX003 (ip), vehicle: Klucel (hydroxypropylcellulose) (HPC) 93 % of control | dose: 400.0 mg/kg/injection, schedule: Q04DX003 (ip), vehicle: Klucel (hydroxypropylcellulose) (HPC) 94 % of control

O=C(O)C1CC=CCC1c1c2ccc(=O)cc-2oc2cc(O)ccc12 (stereo not drawn)
inactive: [1] 98 % of control | [2] 94 % of control | [3] 91 % of control

CC(=N/NC(N)=S)/C(C)=N/NC(N)=S
inactive: dose: 15.0 mg/kg/injection, schedule: Q01DX Z (ip), vehicle: carboxymethylcellulose (CMC) 97 % of control | dose: 30.0 mg/kg/injection, schedule: Q01DX Z (ip), vehicle: carboxymethylcellulose (CMC) 97 % of control | dose: 50.0 mg/kg/injection, schedule: Q01DX001 (ip), vehicle: carboxymethylcellulose (CMC) 95 % of control | dose: 60.0 mg/kg/injection, schedule: Q01DX Z (ip), vehicle: carboxymethylcellulose (CMC) 101 % of control and 91 % of control | [19] 87 % of control | [11] 110 % of control | [16] 91 % of control | [1] 98 % of control | dose: 120.0 mg/kg/injection, schedule: Q01DX Z (ip), vehicle: carboxymethylcellulose (CMC) 95 % of control | [20] 87 % of control | [12] 106 % of control | [17] 88 % of control | [2] 86 % of control | dose: 240.0 mg/kg/injection, schedule: Q01DX Z (ip), vehicle: carboxymethylcellulose (CMC) 93 % of control | dose: 240.0 mg/kg/injection, schedule: Q01DX Z (oral), vehicle: carboxymethylcellulose (CMC) 105 % of control | [21] 89 % of control | [13] 101 % of control | [18] 93 % of control | [3] 91 % of control | dose: 480.0 mg/kg/injection, schedule: Q01DX Z (ip), vehicle: carboxymethylcellulose (CMC) 87 % of control | dose: 480.0 mg/kg/injection, schedule: Q01DX Z (oral), vehicle: carboxymethylcellulose (CMC) 102 % of control | dose: 960.0 mg/kg/injection, schedule: Q01DX Z (oral), vehicle: carboxymethylcellulose (CMC) 102 % of control | dose: 1920.0 mg/kg/injection, schedule: Q01DX Z (oral), vehicle: carboxymethylcellulose (CMC) 111 % of control

C/C=C1\CN(C)[C@H]2Cc3c([nH]c4ccccc34)[C@@H](c3cc4[nH]c5c(c4cc3OC)CCN3C[C@H]4C[C@H](CC)[C@H]3[C@@]5(C(=O)OC)C4)C[C@H]1C2C(=O)OC (stereo partly drawn)
inactive: dose: 30.0 mg/kg/injection, schedule: Q01DX Z (ip), vehicle: water 106 % of control | dose: 45.0 mg/kg/injection, schedule: Q01DX Z (ip), vehicle: water 100 % of control and 102 % of control | dose: 45.0 mg/kg/injection, schedule: Q02DX Z (ip), vehicle: water 101 % of control | dose: 60.0 mg/kg/injection, schedule: Q01DX Z (ip), vehicle: water 96 % of control and 101 % of control | dose: 60.0 mg/kg/injection, schedule: Q02DX Z (ip), vehicle: water 104 % of control | dose: 70.0 mg/kg/injection, schedule: Q02DX Z (ip), vehicle: water 102 % of control | dose: 75.0 mg/kg/injection, schedule: Q01DX Z (ip), vehicle: water 100 % of control | dose: 90.0 mg/kg/injection, schedule: Q01DX Z (ip), vehicle: water 100 % of control

C/C(=C\c1ccccc1)c1ccccc1
inactive: [10] 91 % of control | [11] 97 % of control | [12] 95 % of control | [13] 101 % of control
